{"source": "patent US20260273029A1", "about": "“DRY EYE TREATMENT” (Inoculus Ventures, LLC, priority 2022, published 2026)", "key": {"[1]": {"system": "Staphylococcus aureus biofilms", "test": "S. Aureus biofilm reduction in 96 well plate: 10 min treatment, crystal violet stain, optical density at 600 nm", "format": "cell-based, Staphylococcus aureus subsp. aureus Rosenbach (ATCC 29213)", "settings": "for Reduction in Enzyme Effectiveness by preservative: 10 mg/mL α-amylase + preservative, FIG. 12A, 12B", "method": "• Step 1. Place a new CuveTip on the Photopette • Step 2. Turn on the Photopette and ensure the bluetooth has connected to the iPad. • Step 3. Open the App and set the measurement to collect at 600 nm (use ecoli setting for brevity). • Step 4. Zero the Photopette in DI water, and clean the tip with a chemwipe. • Step 5. Aseptically transfer 100 ml of the TSB citrate media (TSBC) to a flask. • Step 6. Aseptically transfer the overnight culture of Staphylococcus aureus subsp. aureus Rosenbach (ATCC 29213) in Tryptic Soy Broth to the TSB citrate media (TSBC) using a pipet until the culture is diluted to A600 of 0.02 (~2×10^8 CFU/ml) measured with the Photopette. • Step 7. Remove a sterile 96 well plate from the sterile packaging in the hood and place on the table. • Step 8. Set an 8 channel pipet for […] and attach sterile tips. • Step 9. Plate the desired number of wells with […] of the diluted culture. • Step 10. Cover the well plate and incubate overnight for 18 hrs at 37° C.\nPlate S. Aureus in all wells of a 96 tissue culture treated well plate. The well plate should incubate for 18 hrs at 37° C. before being assayed for biofilm formation.\nCarefully tilt plate and pipet all liquid from the wells by inserting the pipet tips in the bottom corner of the wells to remove non-adherent cells without disturbing the biofilm grown on the bottom of the well.\nStart a timer for 10 minutes when the first row is treated using an 8-channel pipette. Each row should be treated every 30 seconds making sure to gently release the composition in the corner of the well to not disturb the biofilm mechanically.\nAfter 10 min all fluid should be removed row by row every 30 seconds starting with Row 1. The fluid must be removed with gentle pipetting, with the plate at an angle, with the pipette in the corner to remove non-adherent cells without disturbing the biofilm grown on the bottom of the well.\nAdd 50 μl of 0.1% crystal violet (CV) to stain adherent cells for all wells.\nCarefully rinse all wells by submerging the plate in a DI water bath to remove all remaining crystal violet.\nDry the well plate and measure the optical density of the biofilms using a plate reader at 600 nm.\nRepeat the steps outlined in 1.2 and 1.3 for scheduled testing days on days 7, 14, 21, 28, and 35. For each day of testing scheduled at days 7, 14, 21, 28, and 35 a well plate of biofilm should be prepared the day before.\nThe remaining biofilm density was assessed using a cell plate reader at 600 nm called an optical density 600 (OD600) measurement.\nStaphylococcus aureus biofilms were grown in 96 well (Corning Falcon) cell culture treated plates using a TSB broth supplemented with yeast extract, glucose, and sodium citrate to induce biofilm formation and incubated for 18 hours.\nNon-adherent cells were removed and the biofilms were treated with different solutions to test the ability to break down the Staph. aureus biofilms. Solutions with α-amylase were produced at 10 mg/mL using α-amylase from Aspergillus oryzae (Sigma-Aldrich Catalog #10065) ~30 U/mg.\nAfter 10 minutes of incubation non-adherent cells were removed and the residual biofilms were stained with crystal violet. The density of the remaining biofilm was measured at 600 nm using a Byonoy Absorbance 96 plate reader.\nStaphylococcus aureus biofilms were grown in 96 well (Crnming Falcon) cell culture treated plates using a TSB broth supplemented with yeast extract, glucose, and sodium citrate to induce biofilm formation and incubated for 18 hours. […]"}, "biofilm on the eyelid": {"system": "biofilm on the eyelid", "test": "Treatment of a human subject (Example 13): eyelid photographs and reported symptoms", "format": "in vivo", "settings": "daily Avenova", "source_text": "All images are from the same subject at the Watson Dry Eye Center in Raleigh NC at the specified times. The images were reviewed retrospectively to determine if the visual signs of biofilm on the eyelid were removed by a composition of α-amylase from Aspergillus oryzae and 0.01% hypochlorous acid. It should be noted that from May 23, 2018-Nov. 20, 2020 the patient cleaned their eyes with just 0.01% hypochlorous acid in saline two times a day. After this, the patient used the novel composition of α-amylase from Aspergillus oryzae and 0.01% hypochlorous acid. The first composition was made from powdered α-amylase from Aspergillus oryzae and liquid 0.01% hypochlorous acid in saline right before application to the eyelid with a cotton swab. […] Dosage information is written on the timeline below.\nFIG. 1A and FIG. 1B are photographs depicting two different areas of an eye of the subject afflicted with blocked meibomian glands, shiny biofilm at the base of eyelashes, shine biofilm on eyelashes, and lash growth misdirection taken on May 23, 2018 (time 0). After the photos were taken, the subject was treated with Blephex and Intense Pulse Light Therapy for biofilm removal treating inflammation.\nSubject received a subsequent treatment session on Dec. 4, 2018. FIG. 2A and FIG. 2B are photographs depicting the two different areas of the eye of the subject on Dec. […]"}}, "data": [{"molecule": "OC[C@H]1O[C@H](O[C@H]2O[C@H](CO)[C@@H](O)[C@H](O)[C@H]2O)[C@H](O)[C@@H](O)[C@@H]1O", "note": "[Trehalose]", "values": [{"measurement": "differences in the enzyme activity (break down of biofilms) between concentrations", "setting": "[1]; 3%, 6.8%, and 8% Trehalose solutions, α=0.05, FIG. 17", "result": "no significant differences"}]}, {"molecule": "OCl", "note": "[0.01% hypochlorous acid, hypochlorous acid]", "values": [{"measurement": "biofilm at the eyelashes", "setting": "biofilm on the eyelid; time 2 (June 18 2019), FIG. 3A", "result": "the biofilm continues to grow at the base of the eyelashes"}, {"measurement": "biofilm at the eyelashes and eyelid", "setting": "biofilm on the eyelid; time 3 (October 15 2019), FIGS. 4A and 4B", "result": "the shine biofilm remains at the eyelashes and inside the eyelid"}, {"measurement": "inhibition of biofilm removal by the enzyme", "setting": "[1]; 0.01% hypochlorous acid with 10 mg/ml α-amylase and cofactors, FIG. 13", "result": "did not inhibit biofilm removal by the enzyme"}, {"measurement": "biofilm reduction by the additive on its own", "setting": "[1]; without α-amylase, 10 min", "result": "slightly reduce the biofilm"}]}, {"molecule": "benzalkonium chloride [BAK (benzalkonium chloride) 0.01%]", "values": [{"measurement": "Reduction in Enzyme Effectiveness by preservative", "setting": "[1]; 10 min", "result": "No Reduction in Enzyme Effectiveness"}]}, {"molecule": "sodium perborate [GenAqua/Dequest (sodium perborate)]", "values": [{"measurement": "Reduction in Enzyme Effectiveness by preservative", "setting": "[1]; 10 min", "result": "No Reduction in Enzyme Effectiveness"}]}]}
